PubChem BioAssay AID1259407 (Chemical Carcinogenesis Research Information System (CCRIS), 2018)
Activity calls are given as the source filed them. The rule behind the calls is not given here.

Tested on: CCRIS mutagenicity, Ames/micronucleus/aberration tests
Test: CCRIS mutagenicity studies

**Q.** Which results are given for `O=C(O)CN(CC(=O)O)CC(=O)O`?
**A.** mutagenic call (End Point: IN VITRO CHROMOSOMAL ABERRATIONS, Test System: CHO CELLS, Metabolic Activation: NONE): inactive; negative; mutagenic call (End Point: IN VITRO CHROMOSOMAL ABERRATIONS, Test System: CHO CELLS, Metabolic Activation: RAT, LIVER, S-9, AROCLOR 1254): inactive; negative; mutagenic call (End Point: IN VITRO MICRONUCLEUS, Test System: CHINESE HAMSTER EMBRYONIC LUNG (CL-1) CELLS, Metabolic Activation: NONE): active; positive at higher doses; mutagenic call (End Point: In vitro micronucleus, Test System: CTLL-2 T mouse lymphocyte cells, Metabolic Activation: None): active; positive; mutagenic call (End Point: In vitro micronucleus, Test System: CTLL-2 T mouse lymphocyte cells, Metabolic Activation: Rat, Kidney, S9, Aroclor 1254 with NADP): inactive; negative; mutagenic call (End Point: In vitro micronucleus, Test System: CTLL-2 T mouse lymphocyte cells, Metabolic Activation: Rat, Kidney, S9, Aroclor 1254 with arachidonic acid instead of NADP): inactive; negative; mutagenic call (End Point: In vitro micronucleus, Test System: CTLL-2 T mouse lymphocyte cells, Metabolic Activation: Rat, Liver, S9, Aroclor 1254): inactive; negative; mutagenic call (End Point: In vitro micronucleus, Test System: CTLL-2 bcl2 mouse lymphocyte cells, Metabolic Activation: None): active; positive; mutagenic call (End Point: In vitro micronucleus, Test System: CTLL-2 bcl2 mouse lymphocyte cells, Metabolic Activation: Rat, Kidney, S9, Aroclor 1254 with NADP): inactive; negative; mutagenic call (End Point: In vitro micronucleus, Test System: CTLL-2 bcl2 mouse lymphocyte cells, Metabolic Activation: Rat, Kidney, S9, Aroclor 1254 with arachidonic acid instead of NADP): inactive; negative; mutagenic call (End Point: In vitro micronucleus, Test System: CTLL-2 bcl2 mouse lymphocyte cells, Metabolic Activation: Rat, Liver, S9, Aroclor 1254): inactive; negative; mutagenic call (End Point: In vitro micronucleus, Test System: L5178Y mouse lymphoma cells, Metabolic Activation: None): active; positive; mutagenic call (End Point: In vitro micronucleus, Test System: L5178Y mouse lymphoma cells, Metabolic Activation: Rat, Kidney, S9, Aroclor 1254 with NADP): inactive; negative; mutagenic call (End Point: In vitro micronucleus, Test System: L5178Y mouse lymphoma cells, Metabolic Activation: Rat, Kidney, S9, Aroclor 1254 with arachidonic acid instead of NADP): inactive; negative; mutagenic call (End Point: In vitro micronucleus, Test System: L5178Y mouse lymphoma cells, Metabolic Activation: Rat, Liver, S9, Aroclor 1254): inactive; negative; mutagenic call (Test System: AMES SALMONELLA TYPHIMURIUM, Strain/Indicator: TA97, Metabolic Activation: HAMSTER, LIVER, S-9, AROCLOR 1254 (10 OR 30%), Method: PREINCUBATION): inactive; negative; mutagenic call (Test System: AMES SALMONELLA TYPHIMURIUM, Strain/Indicator: TA97, Metabolic Activation: NONE, Method: PREINCUBATION): inactive; negative; mutagenic call (Test System: AMES SALMONELLA TYPHIMURIUM, Strain/Indicator: TA97, Metabolic Activation: NONE, Method: SUSPENSION/PLATE): inactive; negative; mutagenic call (Test System: AMES SALMONELLA TYPHIMURIUM, Strain/Indicator: TA97, Metabolic Activation: RAT, LIVER, S-9, AROCLOR 1254 (10 OR 30%), Method: PREINCUBATION): inactive; negative; mutagenic call (Test System: AMES SALMONELLA TYPHIMURIUM, Strain/Indicator: TA98, Metabolic Activation: HAMSTER, LIVER, S-9, AROCLOR 1254 (10 OR 30%), Method: PREINCUBATION): inactive; negative; mutagenic call (Test System: AMES SALMONELLA TYPHIMURIUM, Strain/Indicator: TA98, Metabolic Activation: HAMSTER, LIVER, S-9, AROCLOR 1254, Method: STANDARD PLATE): inactive; negative; mutagenic call (Test System: AMES SALMONELLA TYPHIMURIUM, Strain/Indicator: TA98, Metabolic Activation: HAMSTER, LIVER, S-9, Method: STANDARD PLATE): inactive; negative; mutagenic call (Test System: AMES SALMONELLA TYPHIMURIUM, Strain/Indicator: TA98, Metabolic Activation: MOUSE, LIVER, S-9, AROCLOR 1254, Method: STANDARD PLATE): inactive; negative; mutagenic call (Test System: AMES SALMONELLA TYPHIMURIUM, Strain/Indicator: TA98, Metabolic Activation: MOUSE, LIVER, S-9, Method: STANDARD PLATE): inactive; negative; mutagenic call (Test System: AMES SALMONELLA TYPHIMURIUM, Strain/Indicator: TA98, Metabolic Activation: NONE, Method: PREINCUBATION): inactive; negative; mutagenic call (Test System: AMES SALMONELLA TYPHIMURIUM, Strain/Indicator: TA98, Metabolic Activation: NONE, Method: STANDARD PLATE): inactive; negative; mutagenic call (Test System: AMES SALMONELLA TYPHIMURIUM, Strain/Indicator: TA98, Metabolic Activation: NONE, Method: SUSPENSION/PLATE): inactive; negative; mutagenic call (Test System: AMES SALMONELLA TYPHIMURIUM, Strain/Indicator: TA98, Metabolic Activation: RAT, LIVER, S-9, AROCLOR 1254 (10 OR 30%), Method: PREINCUBATION): inactive; negative; mutagenic call (Test System: AMES SALMONELLA TYPHIMURIUM, Strain/Indicator: TA98, Metabolic Activation: RAT, LIVER, S-9, AROCLOR 1254, Method: STANDARD PLATE): inactive; negative; mutagenic call (Test System: AMES SALMONELLA TYPHIMURIUM, Strain/Indicator: TA98, Metabolic Activation: RAT, LIVER, S-9, Method: STANDARD PLATE): inactive; negative; mutagenic call (Test System: AMES SALMONELLA TYPHIMURIUM, Strain/Indicator: TA100(1,8-DNP6), Metabolic Activation: NONE, Method: SUSPENSION/PLATE): inactive; negative; mutagenic call (Test System: AMES SALMONELLA TYPHIMURIUM, Strain/Indicator: TA100(NR), Metabolic Activation: NONE, Method: SUSPENSION/PLATE): inactive; negative; mutagenic call (Test System: AMES SALMONELLA TYPHIMURIUM, Strain/Indicator: TA100, Metabolic Activation: HAMSTER, LIVER, S-9, AROCLOR 1254 (10 OR 30%), Method: PREINCUBATION): inactive; negative; mutagenic call (Test System: AMES SALMONELLA TYPHIMURIUM, Strain/Indicator: TA100, Metabolic Activation: HAMSTER, LIVER, S-9, AROCLOR 1254, Method: STANDARD PLATE): inactive; negative; mutagenic call (Test System: AMES SALMONELLA TYPHIMURIUM, Strain/Indicator: TA100, Metabolic Activation: HAMSTER, LIVER, S-9, Method: STANDARD PLATE): inactive; negative; mutagenic call (Test System: AMES SALMONELLA TYPHIMURIUM, Strain/Indicator: TA100, Metabolic Activation: MOUSE, LIVER, S-9, AROCLOR 1254, Method: STANDARD PLATE): inactive; negative; mutagenic call (Test System: AMES SALMONELLA TYPHIMURIUM, Strain/Indicator: TA100, Metabolic Activation: MOUSE, LIVER, S-9, Method: STANDARD PLATE): inactive; negative; mutagenic call (Test System: AMES SALMONELLA TYPHIMURIUM, Strain/Indicator: TA100, Metabolic Activation: NONE, Method: PREINCUBATION): inactive; negative; mutagenic call (Test System: AMES SALMONELLA TYPHIMURIUM, Strain/Indicator: TA100, Metabolic Activation: NONE, Method: STANDARD PLATE): inactive; negative; mutagenic call (Test System: AMES SALMONELLA TYPHIMURIUM, Strain/Indicator: TA100, Metabolic Activation: NONE, Method: SUSPENSION/PLATE): inactive; negative; mutagenic call (Test System: AMES SALMONELLA TYPHIMURIUM, Strain/Indicator: TA100, Metabolic Activation: RAT, LIVER, S-9, AROCLOR 1254 (10 OR 30%), Method: PREINCUBATION): inactive; negative; mutagenic call (Test System: AMES SALMONELLA TYPHIMURIUM, Strain/Indicator: TA100, Metabolic Activation: RAT, LIVER, S-9, AROCLOR 1254, Method: STANDARD PLATE): inactive; negative; mutagenic call (Test System: AMES SALMONELLA TYPHIMURIUM, Strain/Indicator: TA100, Metabolic Activation: RAT, LIVER, S-9, Method: STANDARD PLATE): inactive; negative; mutagenic call (Test System: AMES SALMONELLA TYPHIMURIUM, Strain/Indicator: TA102, Metabolic Activation: NONE, Method: SUSPENSION/PLATE): inactive; negative; mutagenic call (Test System: AMES SALMONELLA TYPHIMURIUM, Strain/Indicator: TA1535, Metabolic Activation: HAMSTER, LIVER, S-9, AROCLOR 1254 (10 OR 30%), Method: PREINCUBATION): inactive; negative; mutagenic call (Test System: AMES SALMONELLA TYPHIMURIUM, Strain/Indicator: TA1535, Metabolic Activation: HAMSTER, LIVER, S-9, AROCLOR 1254, Method: STANDARD PLATE): inactive; negative; mutagenic call (Test System: AMES SALMONELLA TYPHIMURIUM, Strain/Indicator: TA1535, Metabolic Activation: HAMSTER, LIVER, S-9, Method: STANDARD PLATE): inactive; negative; mutagenic call (Test System: AMES SALMONELLA TYPHIMURIUM, Strain/Indicator: TA1535, Metabolic Activation: MOUSE, LIVER, S-9, AROCLOR 1254, Method: STANDARD PLATE): inactive; negative; mutagenic call (Test System: AMES SALMONELLA TYPHIMURIUM, Strain/Indicator: TA1535, Metabolic Activation: MOUSE, LIVER, S-9, Method: STANDARD PLATE): inactive; negative; mutagenic call (Test System: AMES SALMONELLA TYPHIMURIUM, Strain/Indicator: TA1535, Metabolic Activation: NONE, Method: PREINCUBATION): inactive; negative
